# Data reported in PubChem BioAssay (NCI).
# Where “and” joins values, the source holds several entries; their conditions need not be identical. Equal entries are not always repeated.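 Assay format: 96-well plates, 48-hour exposure. GI50 marks 50% less growth. The concentration for full growth arrest is given as TGI.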
# System: MDA-MB-468 breast
# Assay: NCI tumour cell line growth inhibition, 48 h
SMILES,GI50,TGI
COc1ccc(C2CC(c3cccc(Nc4ccnc5cc(Cl)ccc45)c3)=NN2c2ccccc2)cc1 (centres undefined),2130 nM,34300 nM
O=C(CCCCCn1c2ccccc2c2c3c(c4c5ccccc5[nH]c4c21)C(=O)N(O)C3=O)N1CCOCC1,2710 nM,5900 nM
COc1cc(OC)cc(-c2n[nH]nc2-c2ccc3c(c2)OCO3)c1,226 nM,25800 nM
N#CC1=C(N)Oc2c(sc3c(F)cccc23)C1c1ccc(Cl)cc1 (centres undefined),3180 nM,12100 nM
COc1cc(C2CC(c3ccc(C)cc3)=NN2C(C)=O)ccc1Oc1ccnc2cc(Cl)ccc12 (centres undefined),20700 nM,> 100000 nM
O=C(NCCc1ccccc1)C(c1csc2ccccc12)N(C(=O)CCl)c1ccc(-c2cnco2)cc1 (centres undefined),812 nM,2600 nM
O=c1cc(N2CCOCC2)oc2c(-c3ccccc3)cccc12,2850 nM,18000 nM
Nc1ncnc2c1ncn2C1OC(CO)C(O)C1O (centres undefined),2140 nM,5410 nM
CC(=O)c1c[nH]c2ccc(-c3ccnc(Nc4ccc(NC(=O)c5cccc(F)c5)c(CN5CCOCC5)c4)n3)cc12,172 nM,582 nM
Oc1ccc(Br)cc1CN1CCN(Cc2ccc(Cl)cc2)CC1,5100 nM,55800 nM
CC(C)=CCNc1ncnc2c1ncn2C1OC(COP(=O)(O)O)C(O)C1O (centres undefined),2010 nM,5400 nM
CC([C@H]1CCC2C3CCC4C(=O)C(NC=O)=CC[C@]4(C)C3CC[C@@]21C)N(C)C (some centres undefined),1900 nM,6260 nM
CCCCCCCC(=O)SCC/C=C/[C@@H]1CC(=O)NCc2cccc(n2)CN(Cc2ccc(Cl)cc2)CC(=O)N[C@@H](C(C)C)C(=O)O1,13800 nM,> 100000 nM
Cc1cc(C)c2nc(Nc3nc(C)c(C)c(=O)[nH]3)nc(C)c2c1,2130 nM,5890 nM
CN1CCN(c2nc(C3=C(c4c[nH]c5ccccc45)C(=O)NC3=O)c3ccccc3n2)CC1,13400 nM and 15000 nM,43600 nM and 30400 nM
CCCCCc1c(C)[nH]c(/C=C2\N=C(c3ccc[nH]3)C=C2Oc2ccc(OC)cc2)c1C,65.5 nM and 27.1 nM,2040 nM and 288 nM
COC(=O)c1ccc2c(c1)[n+](=O)c(C(C)=O)c(C(F)(F)F)n2[O-],1560 nM,3040 nM
COc1ccc(/C(C#N)=C/c2nc3c(N4CCOCC4)nc(Cl)nc3n2C)cc1OC,20.4 nM,1340 nM
CCSc1sc(-c2ccc(C)cc2)nc1[P+](c1ccccc1)(c1ccccc1)c1ccccc1,219 nM,731 nM
COc1ccc(CNCCN2C(=O)c3ccc4c5c(ccc(c35)C2=O)C(=O)N(CCNCc2ccc(OC)cc2)C4=O)cc1,191 nM,482 nM
O=C1/C(=C/c2ccc(F)cc2)CN(Cc2cn(CCNc3ccnc4cc(Cl)ccc34)nn2)C/C1=C\c1ccc(F)cc1,1390 nM,3130 nM
N=C(N)c1ccc(-c2ccc(-c3ccco3)o2)cc1,1390 nM,3790 nM
C=CC[n+]1c(/C=C2\Sc3ccccc3N2C)sc(-c2ccccc2)c1-c1ccccc1,251 nM,911 nM
COc1cccc(-n2cnc3c(N/N=C/c4ccncc4)ncnc32)c1,6400 nM,> 25000 nM
COc1cc(C2C3=C(COC3=O)N(CCO)c3cc4c(cc32)OCCO4)cc(OC)c1O (centres undefined),1010 nM,> 11600 nM
C=C1c2c(C)nn(-c3ccccc3)c2N(C)C23C[C@@H]1C1(C)c4c(C)nn(-c5ccccc5)c4N(C)C(C)(C[C@H]12)C3 (some centres undefined),2900 nM,27900 nM
CN1CCN(c2nc(NCCNc3ccnc4cc(Cl)ccc34)c3ccccc3n2)CC1,1460 nM,4640 nM
